Measurements as given in the supplement of paper PMC10307832.

Tests used:
Assay in all cases: relative viability (nuclei count vs DMSO), 5 days (fraction); higher = more cells survive
[1] = compound: CO[C@@H]1[C@H](N(C)C(=O)c2ccccc2)C[C@H]2O[C@]1(C)n1c3ccccc3c3c4c(c5c6ccccc6n2c5c31)C(=O)NC4 [Midostaurin] + CCNC(=O)c1noc(-c2cc(C(C)C)c(O)cc2O)c1-c1ccc(CN2CCOCC2)cc1 [Luminespib] (partner 0.01 µM)
Method in brief: (§1)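 Lung cancer cell lines in 1536-well plates were dosed by pin tool the day after seeding, either with one drug alone or with a fixed anchor-drug dose plus five library-drug doses (not always all listed) in √10 steps. After 5 days, cells were fixed and their nuclei stained in one step (final 0.05% Triton X-100, 1% formaldehyde, 1 ug/ml Hoechst), then counted on 4× images. Relative viability is the nuclei count in treated wells divided by that in vehicle wells. Values are medians of duplicate plates.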

[2] = compound: COc1cc(-c2nn([C@H]3CC[C@H](N4CCN(C(C)=O)CC4)CC3)c3ncnc(N)c23)ccc1NC(=O)c1cc2ccccc2n1C + O=C(c1cc(Cc2n[nH]c(=O)c3ccccc23)ccc1F)N1CCN(C(=O)C2CC2)CC1 [Olaparib] (partner 8 µM)
Method in brief: as §1

[3] = compound: COc1cc(-c2nn([C@H]3CC[C@H](N4CCN(C(C)=O)CC4)CC3)c3ncnc(N)c23)ccc1NC(=O)c1cc2ccccc2n1C + Cc1cc(Nc2cc(N3CCN(C)CC3)nc(Sc3ccc(NC(=O)C4CC4)cc3)n2)n[nH]1 [Tozasertib] (partner 0.1 µM)
Method in brief: as §1

[4] = compound: COc1cc(-c2nn([C@H]3CC[C@H](N4CCN(C(C)=O)CC4)CC3)c3ncnc(N)c23)ccc1NC(=O)c1cc2ccccc2n1C + COc1cccc2cc(-c3nc([C@H]4CC[C@H](C(=O)O)CC4)n4ncnc(N)c34)[nH]c12 [OSI-027] (partner 0.5 µM)
Method in brief: as §1

[5] = compound: COc1cc(-c2nn([C@H]3CC[C@H](N4CCN(C(C)=O)CC4)CC3)c3ncnc(N)c23)ccc1NC(=O)c1cc2ccccc2n1C + Cc1nc(NC(=O)N2CCC[C@H]2C(N)=O)sc1-c1ccnc(C(C)(C)C(F)(F)F)c1 [Alpelisib] (partner 2 µM)
Method in brief: as §1

Cell Line	relative viability ([1]; first compound 0.01 µM)	relative viability ([1]; first compound 0.03162 µM)	relative viability ([1]; first compound 0.1 µM)	relative viability ([1]; first compound 0.3162 µM)	relative viability ([2]; first compound 0.0128 µM)	relative viability ([2]; first compound 0.04048 µM)	relative viability ([2]; first compound 0.128 µM)	relative viability ([2]; first compound 1.28 µM)	relative viability ([3]; first compound 0.0128 µM)	relative viability ([3]; first compound 0.04048 µM)	relative viability ([3]; first compound 0.128 µM)	relative viability ([3]; first compound 1.28 µM)	relative viability ([4]; first compound 0.0128 µM)	relative viability ([4]; first compound 0.04048 µM)	relative viability ([4]; first compound 0.128 µM)	relative viability ([4]; first compound 1.28 µM)	relative viability ([5]; first compound 0.0128 µM)	relative viability ([5]; first compound 0.04048 µM)	relative viability ([5]; first compound 0.128 µM)	relative viability ([5]; first compound 1.28 µM)
NCI-H1650	0.19	0.175	0.187	0.173	0.822	0.894	0.804	0.731	0.36	0.374	0.351	0.2	0.54	0.707	0.492	0.577				
NCI-H1703					0.386	0.283	0.386	0.184									0.372	0.243	0.228	0.157
NCI-H1792	0.399	0.429	0.388	0.446	0.481	0.532	0.416	0.416					0.736	0.523	0.689	0.558	0.78	0.593	0.719	0.55
NCI-H2342	0.704	0.708	0.738	0.754	0.511	0.423	0.388	0.371	0.595	0.523	0.491	0.303	0.521	0.706	0.644	0.493				
SW 900	0.192	0.198	0.189	0.151	1	1.17	0.845	0.574	0.665	0.539	0.402	0.343	0.536	0.588	0.497	0.356				
